Measured values: ChEMBL document CHEMBL1201862, “PubChem BioAssay data set” (2004)
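Cultured in 96-well plates, cells were exposed to test compound for 48 hours across five concentrations. GI50 marks 50% less growth.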 The source made the active and inactive calls. Rule as the data show it: active = GI50 up to about 1.1 µM and inactive = higher.

Experiments:
Assay in all cases: NCI-60 cell line screen, 48 h
UO-31 = tested on: UO-31
OVCAR-8 = tested on: OVCAR-8
SN12C = tested on: SN12C
MOLT-4 = tested on: MOLT-4
SK-MEL-2 = tested on: SK-MEL-2
786-0 = tested on: 786-0
IGROV-1 = tested on: IGROV-1
A549 = tested on: A549
K562 = tested on: K562
NCI-H226 = tested on: NCI-H226
NCI-H23 = tested on: NCI-H23
SR = tested on: SR
SNB-78 = tested on: SNB-78
A498 = tested on: A498
KM12 = tested on: KM12
RPMI-8226 = tested on: RPMI-8226

Measured: GI50

CCC(C)C(N)C(=O)NC(CC(N)=O)C(=O)NC(CC(C)C)C(=O)NC(CCCCN)C(=O)NC(C)C(=O)NC(CC(C)C)C(=O)NC(C)C(=O)NC(C)C(=O)NC(CC(C)C)C(=O)NC(C)C(=O)NC(CCCCN)C(=O)NC(CCCCN)C(=O)NC(C(=O)NC(CC(C)C)C(N)=O)C(C)CC (centres undefined)
inactive: UO-31 18.1 µM | OVCAR-8 17.5 µM | SN12C 13.6 µM | MOLT-4 14.9 µM | SK-MEL-2 19.4 µM | 786-0 6.56 µM | IGROV-1 17.8 µM | A549 9.93 µM | K562 14.7 µM | NCI-H226 14.5 µM | NCI-H23 14.7 µM | SR 19 µM | SNB-78 11.3 µM | A498 17.9 µM | KM12 14.5 µM

COc1ccc(-c2cc(-c3cc(C)ccc3O)nc(O)n2)cc1
inactive: UO-31 76.6 µM | OVCAR-8 74.8 µM | SN12C > 100 µM | MOLT-4 > 100 µM | 786-0 62.5 µM | IGROV-1 > 100 µM | A549 > 100 µM | K562 > 100 µM | NCI-H226 > 100 µM | NCI-H23 > 100 µM | SR > 100 µM | RPMI-8226 > 100 µM | SNB-78 43.7 µM | A498 74.6 µM | KM12 > 100 µM

Cn1cnc([N+](=O)[O-])c1Sc1nccn1-c1ccccc1
inactive: UO-31 22.3 µM | OVCAR-8 43.1 µM | SN12C 42.3 µM | MOLT-4 21.5 µM | SK-MEL-2 21.4 µM | 786-0 > 100 µM | IGROV-1 43.1 µM | A549 > 100 µM | K562 52.4 µM | NCI-H226 33.7 µM | NCI-H23 29.9 µM | SR 21.2 µM | RPMI-8226 51.3 µM | SNB-78 26.3 µM | A498 > 100 µM | KM12 > 100 µM

Cc1cc2nc3c(C(OC4OC(CO)C(O)C(O)C4O)C(O)CO)nn(-c4ccccc4)c3nc2cc1C (centres undefined)
inactive: UO-31 > 100 µM | OVCAR-8 > 100 µM | SN12C > 100 µM | MOLT-4 > 100 µM | 786-0 > 100 µM | K562 > 100 µM | NCI-H23 > 100 µM | SR > 100 µM | RPMI-8226 > 100 µM | SNB-78 > 100 µM | A498 > 100 µM | KM12 > 100 µM

COC(=O)C(CC(=O)Nc1ccc(C)cc1)C(=O)C(=O)Nc1ccccc1C(C)C (centres undefined)
inactive: UO-31 > 100 µM | OVCAR-8 > 100 µM | SN12C > 100 µM | MOLT-4 > 100 µM | SK-MEL-2 > 100 µM | 786-0 > 100 µM | IGROV-1 > 100 µM | A549 > 100 µM | K562 > 100 µM | NCI-H226 > 100 µM | NCI-H23 > 100 µM | SR > 100 µM | RPMI-8226 62.4 µM | SNB-78 > 100 µM | A498 > 100 µM | KM12 > 100 µM

CCOc1ccc(/C=C(\Cl)c2ccc(OC)cc2)cc1
inactive: UO-31 > 100 µM | OVCAR-8 > 100 µM | SN12C > 100 µM | MOLT-4 > 100 µM | 786-0 > 100 µM | IGROV-1 > 100 µM | A549 > 100 µM | K562 > 100 µM | NCI-H226 > 100 µM | NCI-H23 > 100 µM | SR > 100 µM | RPMI-8226 > 100 µM | SNB-78 > 100 µM | A498 25.2 µM

COc1ccc(NC(=O)C(=O)C2NC(=S)NC2=O)c(OC)c1 (centres undefined)
inactive: UO-31 > 100 µM | OVCAR-8 > 100 µM | SN12C > 100 µM | MOLT-4 > 100 µM | SK-MEL-2 > 100 µM | 786-0 > 100 µM | IGROV-1 > 100 µM | A549 > 100 µM | K562 > 100 µM | NCI-H226 > 100 µM | NCI-H23 > 100 µM | RPMI-8226 > 100 µM | SNB-78 > 100 µM | A498 > 100 µM | KM12 > 100 µM

Clc1cc(Cc2cc(Cl)c(Cl)c3c2OCOC3)c2c(c1Cl)COCO2
inactive: UO-31 34.6 µM | OVCAR-8 36.8 µM | SN12C 58.6 µM | MOLT-4 56.2 µM | SK-MEL-2 55.5 µM | 786-0 25.1 µM | IGROV-1 40.6 µM | A549 40.9 µM | K562 43.9 µM | NCI-H226 28.1 µM | NCI-H23 > 100 µM | SR 55.2 µM | RPMI-8226 33.4 µM | SNB-78 45.1 µM | A498 28.4 µM | KM12 > 100 µM

CCCCCCCCCCNC(=S)OCCCC
inactive: UO-31 23.5 µM | OVCAR-8 33.3 µM | SN12C 19.7 µM | MOLT-4 14.7 µM | SK-MEL-2 12.8 µM | 786-0 29.1 µM | IGROV-1 28.1 µM | A549 26 µM | K562 18.5 µM | NCI-H23 23.1 µM | SR 17.4 µM | RPMI-8226 17.1 µM | SNB-78 35.3 µM | A498 25.6 µM | KM12 14.7 µM

COS(=O)(=O)OCCC(NC(=O)OCc1ccccc1)C(=O)OCc1ccccc1 (centres undefined)
inactive: UO-31 > 100 µM | OVCAR-8 > 100 µM | SN12C > 100 µM | MOLT-4 > 100 µM | SK-MEL-2 > 100 µM | 786-0 > 100 µM | IGROV-1 > 100 µM | A549 > 100 µM | K562 > 100 µM | NCI-H226 > 100 µM | NCI-H23 > 100 µM | RPMI-8226 > 100 µM | SNB-78 > 100 µM | A498 > 100 µM | KM12 > 100 µM

CN(C)C(=S)/N=c1\ss/c(=N/c2ccccc2)n1C
inactive: UO-31 > 100 µM | OVCAR-8 73.6 µM | SN12C > 100 µM | MOLT-4 > 100 µM | SK-MEL-2 > 100 µM | 786-0 22.6 µM | IGROV-1 > 100 µM | A549 59.2 µM | K562 > 100 µM | NCI-H226 > 100 µM | NCI-H23 > 100 µM | SR > 100 µM | RPMI-8226 > 100 µM | SNB-78 32.4 µM | A498 28.9 µM | KM12 > 100 µM

C[Si](C)(C)OC1(C#N)C2C3CC4C2C(=O)C2C4C3C21 (centres undefined)
inactive: UO-31 > 100 µM | OVCAR-8 > 100 µM | SN12C > 100 µM | MOLT-4 > 100 µM | SK-MEL-2 > 100 µM | 786-0 > 100 µM | IGROV-1 > 100 µM | A549 > 100 µM | K562 > 100 µM | NCI-H226 > 100 µM | SR > 100 µM | RPMI-8226 > 100 µM | SNB-78 > 100 µM | A498 > 100 µM | KM12 > 100 µM

N#C/N=C(\NCCc1c[nH]c2ccccc12)NCc1ccccc1
inactive: UO-31 20.5 µM | OVCAR-8 > 100 µM | SN12C 93.8 µM | MOLT-4 34.9 µM | 786-0 25.5 µM | IGROV-1 > 100 µM | A549 60.5 µM | K562 42.8 µM | NCI-H226 34.4 µM | NCI-H23 > 100 µM | SR 32.5 µM | RPMI-8226 42.6 µM | SNB-78 > 100 µM | KM12 36.4 µM

CC(C)CCC[C@@H](C)C1CCC2[C@@H]3CC=C4C[C@@H](C(=O)NCCN(C)C)CC[C@]4(C)C3CC[C@@]21C (some centres undefined)
inactive: UO-31 23.1 µM | OVCAR-8 33.1 µM | SN12C 19.4 µM | MOLT-4 31.1 µM | SK-MEL-2 11.5 µM | 786-0 17.3 µM | IGROV-1 31.1 µM | A549 23.1 µM | K562 33 µM | NCI-H226 19.9 µM | NCI-H23 18.3 µM | RPMI-8226 19.8 µM | SNB-78 > 100 µM | A498 32.5 µM | KM12 14.9 µM

CCCC(OCC)(OCC)OCC
inactive: UO-31 > 100 µM | OVCAR-8 > 100 µM | SN12C > 100 µM | MOLT-4 > 100 µM | SK-MEL-2 > 100 µM | 786-0 > 100 µM | IGROV-1 > 100 µM | A549 > 100 µM | K562 > 100 µM | NCI-H226 > 100 µM | NCI-H23 > 100 µM | SR > 100 µM | RPMI-8226 > 100 µM | SNB-78 > 100 µM | A498 > 100 µM | KM12 > 100 µM

O=c1c(O)cccn1C1OC(CO)C(O)C1O (centres undefined)
inactive: UO-31 > 100 µM | OVCAR-8 > 100 µM | SN12C > 100 µM | SK-MEL-2 > 100 µM | 786-0 > 100 µM | IGROV-1 > 100 µM | A549 > 100 µM | K562 > 100 µM | NCI-H226 > 100 µM | NCI-H23 > 100 µM | RPMI-8226 > 100 µM | SNB-78 > 100 µM | A498 > 100 µM | KM12 > 100 µM

CC1=Nc2c(ccc3c2C(=O)c2ccccc2C3=O)NC(c2cccc3c2CCC3)C1 (centres undefined)
inactive: UO-31 4.72 µM | OVCAR-8 > 100 µM | SN12C > 100 µM | MOLT-4 5.11 µM | SK-MEL-2 > 80.9 µM | 786-0 > 100 µM | IGROV-1 10.3 µM | A549 > 100 µM | K562 21.4 µM | NCI-H226 > 66.2 µM | NCI-H23 > 100 µM | SR 11 µM | RPMI-8226 > 100 µM | SNB-78 > 100 µM | A498 > 67.3 µM | KM12 > 31.9 µM

CC(=O)OC1CC2C(C)(C)C(=O)C=C[C@]2(C)C2CCC3(C)C(c4ccoc4)C(=O)[C@H]4O[C@]43[C@]12C (some centres undefined)
inactive: UO-31 18.7 µM | OVCAR-8 19.4 µM | SN12C 23.3 µM | MOLT-4 16 µM | SK-MEL-2 20.8 µM | 786-0 18.1 µM | IGROV-1 25.5 µM | A549 > 10 µM | K562 15.6 µM | NCI-H226 23.7 µM | NCI-H23 21.5 µM | RPMI-8226 15.9 µM | SNB-78 57.8 µM | A498 20.3 µM
